Data published in US8591892B2, “FTY720 increases CD74 expression and sensitizes cancer cells to anti-CD74 antibody-mediated cell death” (The Ohio State University, priority 2011, dated 2013).

How the values were obtained:
WSU-FSCCL NHL cells = assay: Cytotoxicity of milatuzumab with GAH crosslinking, with and without IFN-γ; assay type: cell-based; conditions: in vitro
Method: We examined whether the ability of anti-CD74 MAbs to kill cancer cells can be increased by using IFN-γ as an inducer of antigen expression. Using a panel of diverse cancer cell lines (including NHL, MM, GBM, and pancreatic and colonic carcinomas), we examined IFN-γ-induced changes in surface and cytoplasmic CD74 expression. Sensitivity of the malignant cells to milatuzumab was assessed with and without IFN-γ by cytotoxicity assays.
The cytotoxicity of anti-CD74 antibodies was examined in the presence or absence of IFN-γ (not shown). As previously observed, in vitro cytotoxicity of milatuzumab required crosslinking (Stein, et al., Blood, 104: 3705-11, 2004). Goat anti-human IgG (GAH) was used for crosslinking in these experiments.

[1] = single agents, same dosage and delivery schedule; cited from earlier work
[2] = tested on: primary tumor cells from MCL patients; assay: Cell viability by annexin-V/PI staining and flow cytometry; assay type: cell-based, human; conditions: six MCL patients, 24 hours; FTY720 2.5 μM, immobilized milatuzumab 5 μg/ml
Method: FIG. 4. FTY720 sensitizes MCL cell lines and primary patient tumor cells to milatuzumab-mediated cytotoxicity. (A) Four MCL cell lines and primary cells from 6 patients were treated with FTY720 and/or milatuzumab plus cross-linking antibodies at the indicated concentrations. (B) Patient characteristics. (C) Individual patient responses. (D) Representative histograms summarizing patient responses. Cell death was determined by annexin V/PI staining and flow cytometry at 24 hours. Data are shown as the percentage of annexin V−/PI− cells (live cells) and are normalized to untreated controls.
Primary tumor cells were isolated from the peripheral blood/lymph nodes of patients with MCL. All patients studied were diagnosed with MCL according to the World Health Organization (WHO) classification of tumors (Swerdlow, 2008, World Health Organization Classification of Tumours of Haematopoetic and Lymphoid Tissues (ed 4th ed.) Lyon, France, International Agency on Research for Cancer). All samples contained at least 85% of CD19^+/CD20^+ B cells detected by flow cytometry. […]
To assess lysosomal volume, FTY720 treated cells were incubated with LYSOTRACKER™ green DND-26. […] Cell viability was measured at 24 hours by dual staining with annexin-V FITC and propidium iodide (PI). A total of 10,000 events were collected and analyzed using WinMDI. […]

LS174T = assay: Flow cytometry of CD74, HLA-DR, CEACAM5 with directly labeled MAbs, with and without IFN-γ; assay type: cell-based
Method: (§1) Expression of CD74, HLA-DR, and carcinoembryonic antigen (CEACAM5) was determined in untreated cells and cells exposed to 200 U of IFN-γ for 48 h by flow cytometry. Cells were stained with directly labeled MAbs in comparison to a directly labeled human IgG control. Antibodies were labeled using ALEXA FLUOR® 488 (Invitrogen, Carlsbad, Calif.). For determination of cytoplasmic antigen expression, cells were permeabilized prior to staining using the BD CYTOFIX/CYTOPERM™ kit (BD Biosciences, San Jose, Calif.).

Aspc-1 = assay: as above; assay type: cell-based
Method: as §1

RL = assay: as above; assay type: cell-based
Method: as §1

U118 = assay: as above; assay type: cell-based
Method: as §1

Moser = assay: as above; assay type: cell-based
Method: as §1

Panc-1 = assay: as above; assay type: cell-based
Method: as §1

BxPC-3 = assay: as above; assay type: cell-based
Method: as §1

FSCCL = assay: as above; assay type: cell-based
Method: as §1

Lovo = assay: as above; assay type: cell-based
Method: as §1

TU118 = assay: as above; assay type: cell-based
Method: as §1

KMS11 = assay: as above; assay type: cell-based
Method: as §1

Capan-1 = assay: as above; assay type: cell-based
Method: as §1

Substance: milatuzumab: fully humanized monoclonal antibody specific for CD74
- increased killing after IFN-γ exposure (WSU-FSCCL NHL cells): 33%
- weight loss or other side effects [1]: did not cause any observed weight loss or other significant side effects
- average cell death [2]: 50%
- % change of cell surface expression with IFNγ (LS174T; LS174T): −11.3%
- % change of cytoplasmic expression with IFNγ (LS174T; LS174T): 112.7%
- Cell surface expression (staining with directly labeled MAb) (LS174T; LS174T + IFNγ 200 U, 48 h): 5.2
- Cell surface expression (staining with directly labeled MAb) (LS174T; LS174T, without IFN-γ): 5.9
- % change of cell surface expression with IFNγ (Aspc-1; Aspc-1): 121.3%
- % change of cytoplasmic expression with IFNγ (Aspc-1; Aspc-1): 1451.5%
- Cell surface expression (staining with directly labeled MAb) (Aspc-1; Aspc-1 + IFNγ 200 U, 48 h): 7.3
- Cell surface expression (staining with directly labeled MAb) (Aspc-1; Aspc-1, without IFN-γ): 3.3
- % change of cell surface expression with IFNγ (RL; RL): 23.8%
- % change of cytoplasmic expression with IFNγ (RL; RL): 3.7%
- Cell surface expression (staining with directly labeled MAb) (RL; RL + IFNγ 200 U, 48 h): 25.0
- Cell surface expression (staining with directly labeled MAb) (RL; RL, without IFN-γ): 20.2
- % change of cell surface expression with IFNγ (U118; U118): 160.9%
- % change of cytoplasmic expression with IFNγ (U118; U118): 428.2%
- Cell surface expression (staining with directly labeled MAb) (U118; U118 + IFNγ 200 U, 48 h): 18.3
- Cell surface expression (staining with directly labeled MAb) (U118; U118, without IFN-γ): 7.0
- % change of cell surface expression with IFNγ (Moser; Moser): 16.3%
- % change of cytoplasmic expression with IFNγ (Moser; Moser): 86.1%
- Cell surface expression (staining with directly labeled MAb) (Moser; Moser + IFNγ 200 U, 48 h): 4.8
- Cell surface expression (staining with directly labeled MAb) (Moser; Moser, without IFN-γ): 4.1
- % change of cell surface expression with IFNγ (Panc-1; Panc-1): 9.4%
- % change of cytoplasmic expression with IFNγ (Panc-1; Panc-1): 208.7%
- Cell surface expression (staining with directly labeled MAb) (Panc-1; Panc-1 + IFNγ 200 U, 48 h): 4.9
- Cell surface expression (staining with directly labeled MAb) (Panc-1; Panc-1, without IFN-γ): 4.5
- % change of cell surface expression with IFNγ (BxPC-3; BxPC-3): 142.2%
- % change of cytoplasmic expression with IFNγ (BxPC-3; BxPC-3): 1763.5%
- Cell surface expression (staining with directly labeled MAb) (BxPC-3; BxPC-3 + IFNγ 200 U, 48 h): 6.2
- Cell surface expression (staining with directly labeled MAb) (BxPC-3; BxPC-3, without IFN-γ): 2.6
- % change of cell surface expression with IFNγ (FSCCL; FSCCL): 32.8%
- % change of cytoplasmic expression with IFNγ (FSCCL; FSCCL): 58.5%
- Cell surface expression (staining with directly labeled MAb) (FSCCL; FSCCL + IFNγ 200 U, 48 h): 19.0
- Cell surface expression (staining with directly labeled MAb) (FSCCL; FSCCL, without IFN-γ): 14.3
- % change of cell surface expression with IFNγ (Lovo; Lovo): 173.7%
- % change of cytoplasmic expression with IFNγ (Lovo; Lovo): 756.0%
- Cell surface expression (staining with directly labeled MAb) (Lovo; Lovo + IFNγ 200 U, 48 h): 9.2
- Cell surface expression (staining with directly labeled MAb) (Lovo; Lovo, without IFN-γ): 3.4
- % change of cell surface expression with IFNγ (TU118; TU118): 167.8%
- % change of cytoplasmic expression with IFNγ (TU118; TU118): 374.6%
- Cell surface expression (staining with directly labeled MAb) (TU118; TU118 + IFNγ 200 U, 48 h): 19.2
- Cell surface expression (staining with directly labeled MAb) (TU118; TU118, without IFN-γ): 7.17
- % change of cell surface expression with IFNγ (KMS11; KMS11): 14.0%
- % change of cytoplasmic expression with IFNγ (KMS11; KMS11): −1.9%
- Cell surface expression (staining with directly labeled MAb) (KMS11; KMS11 + IFNγ 200 U, 48 h): 5.1
- Cell surface expression (staining with directly labeled MAb) (KMS11; KMS11, without IFN-γ): 4.4
- Cell surface expression (staining with directly labeled MAb) (Capan-1; Capan + IFNγ 200 U, 48 h): 11.1
- % change of cell surface expression with IFNγ (Capan-1; Capan-1): 152.4%
- % change of cytoplasmic expression with IFNγ (Capan-1; Capan-1): 561.2%
- Cell surface expression (staining with directly labeled MAb) (Capan-1; Capan-1, without IFN-γ): 4.4
